Drawing on patent US20210300936A1, “PYRAZOLOTRIAZOLOPYRIMIDINE DERIVATIVES AS A2A RECEPTOR ANTAGONIST” (BEIGENE, LTD., priority 2018, published 2021), this text covers IC50 for 30 compounds.

Structures are written as SMILES.

human A2A receptor (A2AR), sequence (P29274 whole entry): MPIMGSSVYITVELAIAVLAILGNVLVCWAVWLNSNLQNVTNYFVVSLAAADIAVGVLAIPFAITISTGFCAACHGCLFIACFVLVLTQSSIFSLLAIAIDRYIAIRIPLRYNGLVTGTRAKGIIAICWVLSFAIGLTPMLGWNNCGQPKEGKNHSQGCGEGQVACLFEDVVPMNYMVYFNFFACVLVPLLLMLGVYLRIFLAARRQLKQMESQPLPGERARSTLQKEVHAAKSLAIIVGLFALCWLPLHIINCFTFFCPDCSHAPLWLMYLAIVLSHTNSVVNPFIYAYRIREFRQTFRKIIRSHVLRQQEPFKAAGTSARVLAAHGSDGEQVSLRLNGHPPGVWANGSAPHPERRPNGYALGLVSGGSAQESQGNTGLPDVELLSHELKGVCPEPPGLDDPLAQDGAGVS

The target of this experiment is human A2A receptor (A2AR) (Homo sapiens, UniProt P29274). In words: Luciferase reporter assay (HEK293-A2AR-luc2p/CRE/Hygro cells, 3 nM CGS21680). In kind it is cell-based. The following applies: 3 nM CGS21680, 5 h incubation. How it is done:
HEK293 cells were maintained in Dulbecco's modified Eagle's medium (DMEM, Gibco) supplemented with 10% fetal bovine serum (FBS, Thermo Scientific), 100 units/mL penicillin (Gibco), and 0.1 mg/mL streptomycin (Gibco) in a humidified 37° C. environment with 5% C02. Plasmid encoding wild-type human A2A receptor (A2AR) (in pcDNA3.1) was synthesized by Genscript (Nanjing, China). Transfection of the plasmids was performed in 6-well plates with 4×10^5 cells using Lipofectamin 2000 (ThermoFisher Scientific) according to the instruction of the manufacturer. Cell clones that stably express A2AR were established and maintained in the same complete medium as the HEK293 cells in addition of G-418 (Gibico). Expression level of A2AR in each single cell clone was determined using immunoblotting and FACS method. HEK293-A2AR stable cells were then transfected with pGL4.29[luc2P/CRE/Hygro] (Promega) luciferase reporter plasmid for establishing the HEK293-A2AR-luc2p/CRE/Hygro stable cell line.
HEK293-A2AR-luc2p/CRE/Hygro cells were seeded at a density of 5,000 cells/well in DMEM with 1% FBS and 1 U/mL adenosine deaminase (ADA) (Sigma). After 18 h, the cells were treated with 3 nM CGS21680 plus a series dilution of A2AR antagonist, the compounds disclosed herein at the concentration of 0.1˜10000 nM, prepared in DMEM with 1% FBS. After 5 h incubation, the luciferase activity in cells were measured using the Bright-Glo Luciferase Assay System (Promega) according to manufacturer's instructions. The luminescence signal was measured using a PHERAstar FS plate reader (BMG Labtech). […] Maximal luminescence intensity was determined in the presence of 3 nM CGS21680 and was set as 100%. The IC50 value was calculated from a dose dependent inhibition curve across the range of compound concentrations.
(Reporter assays use an easily measured gene product as a stand-in for the process of interest.)
In general, IC50 refers to the midpoint of a concentration-inhibition curve. A low value points to greater potency in that assay. `COCCOc1ccc(N2CCN(C(=O)C(c3ccccc3)n3ncc4c3nc(N)n3nc(-c5ccco5)nc43)CC2C)cc1` (single isomer, unassigned) [Compound A47a] registered an IC50 of 17.3 nM.

In turn, `COCCOc1ccc(N2CCN(C(=O)C(c3ccccc3)n3ncc4c3nc(N)n3nc(-c5ccco5)nc43)CC2C)cc1` (single isomer, unassigned) [Compound A47b] displayed an IC50 of 0.2 nM.

In turn, `COCCOc1ccc(N2CCN(C(=O)C(c3ccccc3)n3ncc4c3nc(N)n3nc(-c5ccco5)nc43)C(C)C2)cc1` (single isomer, unassigned) [Compound A50a] returned an IC50 of 88.2 nM.

Consider `COCCOc1ccc(N2CCN(C(=O)C(c3ccccc3)n3ncc4c3nc(N)n3nc(-c5ccco5)nc43)C(C)C2)cc1` (single isomer, unassigned) [Compound A50b], for which the IC50 amounted to 1 nM.

Turning to `CN(C)CCOc1ccc(N2CCN(C(=O)C(C)(c3ccccc3)n3ncc4c3nc(N)n3nc(-c5ccco5)nc43)CC2)cc1` (single isomer, unassigned) [Compound A71a], the IC50 is 10.9 nM.

For `CN(C)CCOc1ccc(N2CCN(C(=O)C(C)(c3ccccc3)n3ncc4c3nc(N)n3nc(-c5ccco5)nc43)CC2)cc1` (single isomer, unassigned) [Compound A71b], the IC50 is 4.8 nM.

`Nc1nc2c(cnn2C(C(=O)N2CCc3ccccc3C2)c2ccccc2)c2nc(-c3ccco3)nn12` (single isomer, unassigned) [Compound B3a] gave an IC50 of 21.6 nM.

`Nc1nc2c(cnn2C(C(=O)N2CCc3cc(F)ccc3C2)c2ccccc2)c2nc(-c3ccco3)nn12` (single isomer, unassigned) [Compound B7a] returned an IC50 of 29.1 nM.

`Nc1nc2c(cnn2C(C(=O)N2CCc3cc(F)ccc3C2)c2ccccc2)c2nc(-c3ccco3)nn12` (single isomer, unassigned) [Compound B7b] showed an IC50 of 0.5 nM.

The compound `CCCC(C(=O)N1CCN(c2ccc(OCCOC)cc2)CC1)n1cc2c(nc(N)n3nc(-c4ccco4)nc23)n1` (single isomer, unassigned) [Compound C5a] yielded an IC50 of 55 nM.

For `CCCC(C(=O)N1CCN(c2ccc(OCCOC)cc2)CC1)n1cc2c(nc(N)n3nc(-c4ccco4)nc23)n1` (single isomer, unassigned) [Compound C5b], the midpoint of inhibition, the IC50, lay at 209 nM.

Compound `COCCOc1ccc(N2CCN(C(=O)C(C3CC3)n3cc4c(nc(N)n5nc(-c6ccco6)nc45)n3)CC2)cc1` (single isomer, unassigned) [Compound C16a] gave an IC50 of 4.1 nM.

`COCCOc1ccc(N2CCN(C(=O)C(C3CC3)n3cc4c(nc(N)n5nc(-c6ccco6)nc45)n3)CC2)cc1` (single isomer, unassigned) [Compound C16b] had an IC50 of 168 nM.

Compound `COCCOc1ccc(N2CCN(C(=O)C(C)(c3ccccc3)n3cc4c(nc(N)n5nc(-c6ccco6)nc45)n3)CC2)cc1` (single isomer, unassigned) [Compound C25a] registered an IC50 of 79.8 nM.

As to `COCCOc1ccc(N2CCN(C(=O)C(C)(c3ccccc3)n3cc4c(nc(N)n5nc(-c6ccco6)nc45)n3)CC2)cc1` (single isomer, unassigned) [Compound C25b], half-maximal inhibition (IC50) required 21.2 nM.

`COCCOc1ccc(N2CCN(C(=O)C(C)n3ncc4c3nc(N)n3nc(-c5ccco5)nc43)CC2)cc1` (stereo not drawn) [Compound A1, 2-(5-amino-2-(furan-2-yl)-7H-pyrazolo[4,3-e][1,2,4]triazolo[1,5-c]pyrimidin-7-yl)-1-(4-(4-(2-methoxyethoxy)phenyl)piperazin-1-yl)propan-1-one] displayed an IC50 of 42.9 nM.

Compound `COCCOc1ccc(N2CCN(C(=O)C(C(C)C)n3ncc4c3nc(N)n3nc(-c5ccco5)nc43)CC2)cc1` (stereo not drawn) [Compound A2, 2-(5-amino-2-(furan-2-yl)-7H-pyrazolo[4,3-e][1,2,4]Triazolo[1,5-c]pyrimidin-7-yl)-1-(4-(4-(2-methoxyethoxy)phenyl)piperazin-1-yl)-3-methylbutan-1-one] showed an IC50 of 96.9 nM.

`COCCOc1ccc(N2CCN(C(=O)C(C)(C)n3ncc4c3nc(N)n3nc(-c5ccco5)nc43)CC2)cc1` [Compound A3, 2-(5-amino-2-(furan-2-yl)-7H-pyrazolo[4,3-e][1,2,4]triazolo[1,5-c]pyrimidin-7-yl)-1-(4-(4-(2-methoxyethoxy)phenyl)piperazin-1-yl)-2-methylpropan-1-one] returned an IC50 of 362 nM.

`CCC(C(=O)N1CCN(c2ccc(OCCOC)cc2)CC1)n1ncc2c1nc(N)n1nc(-c3ccco3)nc21` (stereo not drawn) [Compound A4, 2-(5-amino-2-(furan-2-yl)-7H-pyrazolo[4,3-e][1,2,4]triazolo[1,5-c]pyrimidin-7-yl)-1-(4-(4-(2-methoxyethoxy)phenyl)piperazin-1-yl)butan-1-one]: the concentration for half-maximal inhibition (IC50) was found to be 43.5 nM.

The compound `CCCC(C(=O)N1CCN(c2ccc(OCCOC)cc2)CC1)n1ncc2c1nc(N)n1nc(-c3ccco3)nc21` (stereo not drawn) [Compound A5, 2-(5-amino-2-(furan-2-yl)-7H-pyrazolo[4,3-e][1,2,4]triazolo[1,5-c]pyrimidin-7-yl)-1-(4-(4-(2-methoxyethoxy)phenyl)piperazin-1-yl)pentan-1-one] returned an IC50 of 9.1 nM.

Compound `CCCC(C(=O)N1CCN(c2ccc(OCCOCCOC)cc2)CC1)n1ncc2c1nc(N)n1nc(-c3ccco3)nc21` (stereo not drawn) [Compound A6, 2-(5-amino-2-(furan-2-yl)-7H-pyrazolo[4,3-e][1,2,4]triazolo[1,5-c]pyrimidin-7-yl)-1-(4-(4-(2-(2-methoxyethoxy)ethoxy)phenyl)piperazin-1-yl)pentan-1-one] came in with an IC50 of 9.5 nM.

`CC(C(=O)N1CCN(c2ccc(OCCN)cc2)CC1)n1ncc2c1nc(N)n1nc(-c3ccco3)nc21` (stereo not drawn) [Compound A7, 2-(5-amino-2-(furan-2-yl)-7H-pyrazolo[4,3-e][1,2,4]triazolo[1,5-c]pyrimidin-7-yl)-1-(4-(4-(2-aminoethoxy)phenyl)piperazin-1-yl)propan-1-one] showed an IC50 of 23.1 nM.

For the compound `CCC(C(=O)N1CCN(c2ccc(OCCOCCOC)cc2)CC1)n1ncc2c1nc(N)n1nc(-c3ccco3)nc21` (stereo not drawn) [Compound A8, 2-(5-amino-2-(furan-2-yl)-7H-pyrazolo[4,3-e][1,2,4]triazolo[1,5-c]pyrimidin-7-yl)-1-(4-(4-(2-(2-methoxyethoxy)ethoxy)phenyl)piperazin-1-yl)butan-1-one], 41.5 nM corresponded to half-maximal inhibition (IC50).

Turning to `COCCOCCOc1ccc(N2CCN(C(=O)C(C)n3ncc4c3nc(N)n3nc(-c5ccco5)nc43)CC2)cc1` (stereo not drawn) [Compound A9, 2-(5-amino-2-(furan-2-yl)-7H-pyrazolo[4,3-e][1,2,4]triazolo[1,5-c]pyrimidin-7-yl)-1-(4-(4-(2-(2-methoxyethoxy)ethoxy)phenyl)piperazin-1-yl)propan-1-one], inhibition was half-maximal at 59.1 nM (IC50).

As to `CCCCC(C(=O)N1CCN(c2ccc(OCCOC)cc2)CC1)n1ncc2c1nc(N)n1nc(-c3ccco3)nc21` (stereo not drawn) [Compound A10, 2-(5-amino-2-(furan-2-yl)-7H-pyrazolo[4,3-e][1,2,4]triazolo[1,5-c]pyrimidin-7-yl)-1-(4-(4-(2-methoxyethoxy)phenyl)piperazin-1-yl)hexan-1-one], the IC50 was found to be 6.3 nM.

`CCCCC(C(=O)N1CCN(c2ccc(OCCOCCOC)cc2)CC1)n1ncc2c1nc(N)n1nc(-c3ccco3)nc21` (stereo not drawn) [Compound A11, 2-(5-amino-2-(furan-2-yl)-7H-pyrazolo[4,3-e][1,2,4]triazolo[1,5-c]pyrimidin-7-yl)-1-(4-(4-(2-(2-methoxyethoxy)ethoxy)phenyl)piperazin-1-yl)hexan-1-one] gave an IC50 of 6.9 nM.

Turning to `COCCOCCOc1ccc(N2CCN(C(=O)C(C(C)C)n3ncc4c3nc(N)n3nc(-c5ccco5)nc43)CC2)cc1` (stereo not drawn) [Compound A12, 2-(5-amino-2-(furan-2-yl)-7H-pyrazolo[4,3-e][1,2,4]triazolo[1,5-c]pyrimidin-7-yl)-1-(4-(4-(2-(2-methoxyethoxy)ethoxy)phenyl)piperazin-1-yl)-3-methylbutan-1-one], 113 nM corresponded to half-maximal inhibition (IC50).

`COCCOc1ccc(N2CCN(C(=O)C(c3ccccc3)n3ncc4c3nc(N)n3nc(-c5ccco5)nc43)CC2)cc1` (stereo not drawn) [Compound A13, 2-(5-amino-2-(furan-2-yl)-7H-pyrazolo[4,3-e][1,2,4]triazolo[1,5-c]pyrimidin-7-yl)-1-(4-(4-(2-methoxyethoxy)phenyl)piperazin-1-yl)-2-phenylethan-1-one]: half-maximal inhibition (IC50) was put at 2.9 nM.

`COCCOCCOc1ccc(N2CCN(C(=O)C(c3ccccc3)n3ncc4c3nc(N)n3nc(-c5ccco5)nc43)CC2)cc1` (stereo not drawn) [Compound A14, 2-(5-amino-2-(furan-2-yl)-7H-pyrazolo[4,3-e][1,2,4]triazolo[1,5-c]pyrimidin-7-yl)-1-(4-(4-(2-(2-methoxyethoxy)ethoxy)phenyl)piperazin-1-yl)-2-phenylethan-1-one] displayed an IC50 of 12.7 nM.

In turn, `COCCOc1ccc(N2CCN(C(=O)C(C3CC3)n3ncc4c3nc(N)n3nc(-c5ccco5)nc43)CC2)cc1` (stereo not drawn) [Compound A15, 2-(5-amino-2-(furan-2-yl)-7H-pyrazolo[4,3-e][1,2,4]triazolo[1,5-c]pyrimidin-7-yl)-2-cyclopropyl-1-(4-(4-(2-methoxyethoxy)phenyl)piperazin-1-yl)ethan-1-one] came in with an IC50 of 8.4 nM.
